Data as given in PubChem BioAssay (NCI).
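Following 48 hours of exposure in 96-well plates, responses at five concentrations were used to interpolate endpoints linearly. TGI is the concentration that stops growth completely.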

Columns and labels:
Experiment in all cases: NCI anticancer screen, dose series, 48 h
786-0 renal = test system: 786-0 renal
A498 renal = test system: A498 renal
A549 NSCLC = test system: A549 NSCLC
ACHN renal = test system: ACHN renal
BT-549 breast = test system: BT-549 breast
CAKI-1 renal = test system: CAKI-1 renal
CCRF-CEM leukemia = test system: CCRF-CEM leukemia
COLO 205 colon = test system: COLO 205 colon
EKVX NSCLC = test system: EKVX NSCLC
HCT-116 colon = test system: HCT-116 colon
HCT-15 colon = test system: HCT-15 colon
HOP-62 NSCLC = test system: HOP-62 NSCLC
HOP-92 NSCLC = test system: HOP-92 NSCLC
HS 578T breast = test system: HS 578T breast
HT29 colon = test system: HT29 colon
IGROV1 ovarian = test system: IGROV1 ovarian
K-562 leukemia = test system: K-562 leukemia
KM12 colon = test system: KM12 colon
LOX IMVI melanoma = test system: LOX IMVI melanoma
M14 melanoma = test system: M14 melanoma
MALME-3M melanoma = test system: MALME-3M melanoma
MCF7 breast = test system: MCF7 breast
MDA-MB-231 breast = test system: MDA-MB-231 breast
MDA-MB-435 = test system: MDA-MB-435
MOLT-4 leukemia = test system: MOLT-4 leukemia
NCI-H226 lung = test system: NCI-H226 lung
NCI-H23 lung = test system: NCI-H23 lung
NCI-H460 lung = test system: NCI-H460 lung
NCI-H522 lung = test system: NCI-H522 lung
NCI/ADR-RES ovarian = test system: NCI/ADR-RES ovarian
OVCAR-3 ovarian = test system: OVCAR-3 ovarian
OVCAR-4 ovarian = test system: OVCAR-4 ovarian
OVCAR-5 ovarian = test system: OVCAR-5 ovarian
OVCAR-8 ovarian = test system: OVCAR-8 ovarian
PC-3 prostate = test system: PC-3 prostate
RPMI-8226 leukemia = test system: RPMI-8226 leukemia
RXF 393 renal = test system: RXF 393 renal
SF-268 CNS = test system: SF-268 CNS
SF-295 CNS = test system: SF-295 CNS
SF-539 CNS = test system: SF-539 CNS
SK-MEL-2 melanoma = test system: SK-MEL-2 melanoma
SK-MEL-5 melanoma = test system: SK-MEL-5 melanoma
SK-OV-3 ovarian = test system: SK-OV-3 ovarian
SNB-19 CNS = test system: SNB-19 CNS
SNB-75 CNS = test system: SNB-75 CNS
SR leukemia = test system: SR leukemia
SW-620 colon = test system: SW-620 colon
T-47D breast = test system: T-47D breast
TK-10 renal = test system: TK-10 renal
U251 CNS = test system: U251 CNS
UACC-257 melanoma = test system: UACC-257 melanoma
UACC-62 melanoma = test system: UACC-62 melanoma
UO-31 renal = test system: UO-31 renal

Measured: TGI

O=C1CCCn2c(nc3ccccc32)N1
> 100 µM: all assays above
